Source: patent US20250099407A1, “2-AMINO BENZOPHENONE DERIVATIVES FOR TARGETED FERROPTOSIS INDUCTION IN CANCER THERAPY” (INDIAN INSTITUTE OF TECHNOLOGY KANPUR, priority 2023, published 2025)

Legend:
[1] = test system: Huh-7 cells; assay: Intracellular ROS, H2-DCFDA oxidation assay in Huh-7 cells; type: cell-based; conditions: Huh-7, 37° C., 30 min; IITK3001 and IITK3002 20 μM, H2O2 100 μM
Description: We used fluorescence imaging-based oxidation of H2-DCFDA by ROS for assessing intracellular oxidative stress. Huh-7 cells were treated at 37° C. for 30 min with IITK3001 and IITK3002 (20 μM), H2O2 (100 μM), ^tertBuOOH (20 μM), NAC (0.5 mM) and 0.1% DMSO as control. Each experiment was conducted in more than two biological replicates with three technical replicates.
b. Effect of Thiols and Ferroptosis Modulators on the Hit Molecules' Antiproliferative Potency: Ferroptosis is directly controlled by the intracellular thiol concentrations in the form of cysteine and glutathione. Several oxidative mechanisms are well-wired in ferroptotic cell death and we set out to investigate the precise molecular mechanism of our lead molecules. Both cysteine and glutathione (GSH) are the enriched thiol-containing small molecule antioxidant system that are essential regulators of redox modulation in cells including ferroptosis. Further, the enzyme glutathione peroxidase 4 (GPX4) is well characterized to specifically quench the lipid peroxide equivalents in cells through the conversion of […] in cells thereby restoring the reduced environment in cells. Therefore, first, we assessed the ability of N-acetylcysteine (NAC) and GSH to suppress our lead molecules antiproliferative activity (FIG. 4a, b). We found a drastic reduction in the molecules' potency with IITK3001 (>1000-fold reduction) and IITK3002 (>500-fold reduction) (FIG. 14a, b). Supporting that, the addition of DL-Buthionine sulfoximine (BSO), an inhibitor of y-glutamylcysteine synthetase (glutathione biosynthesis) combination with our lead molecules potentiated the overall inhibitory capacity (FIG. 14a, b). […] Finally, we assessed the effect of Ferrostain-1 (Fer-1) and Liproxstatin-1 (Lip-1), antioxidants that function by trapping reactive radicals in cells, particularly lipid-peroxide radicals, and preventing the accumulation of lipid peroxides in cells. […] The accumulation of lipid peroxides and overall ROS was also detected using a fluorescence-based H2DCF-DA assay as depicted in FIG. 15. […]

[2] = test system: Huh-7 cells; assay: Cell viability, luminescence-based CellTiter-Glo assay, Huh-7 cells; conditions: Homo sapiens, Huh-7, Huh-7 cells, cell viability; read-out: EC50 Huh-7
Description: The viability of Huh-7 cells was recorded using a luminescence-based CellTiter-Glo® assay. The screening concentration of the molecules were 10 μM with or without Fer-1 (10 μM) in DMEM media (>0.1% DMSO as control).
Ferroptosis is a unique form of cell death mechanism mediated by the accumulation of lipid peroxides in cells which is distinct from healthy cells' apoptosis, a programmed […] route. We aimed to exploit the induction of ferroptosis in cancer cells using covalent small molecules as a potential strategy for cancer therapeutic development. […] We used various amide bond formation chemistry to construct the library members and these molecules are well characterized by various spectroscopic and mass spectrometry techniques. Once confirmed, these thiol reactive library members were screened in a cancer cell viability assay in combination with ferrostatin-1 (Fer-1), a ferroptosis inhibitor as depicted in FIG. 11. […] We have screened a total of ˜50 electrophilic small molecules to prevent the proliferation of hepatocellular carcinoma (Huh-7 cells) in combination with and without Fer-1. From our initial screening, we identified haloacetamides of 2-aminoalkylbenzophenone as potential ferroptosis inducers as depicted in FIG. 11.
(§1) The viability of screened cancer cells was recorded using a luminescence-based CellTiter-Glo® assay for the ATP quantification. The screening concentration of the molecule ranged from 100/10 μM to 45/4.5 nM with an 8-point-3-fold dilution series in DMEM media (>0.1% DMSO as control). Each experiment was conducted in more than two biological replicates with three technical replicates. The error bar is a representation of standard deviation among the technical replicates.
The viability of screened cancer cells was recorded using a luminescence-based CellTiter-Glo® assay for the ATP quantification. The screening concentration of IITK3002 ranged from 10 μM to 4.5 nM with an 8-point-3-fold dilution series in DMEM media (>0.1% DMSO as control). Each experiment was conducted in more than two biological replicates with three technical replicates. The error bar is a representation of standard deviation among the technical replicates. […]
a. Electrophilic Warhead Optimization: Once we identified 2-benzoylphenyl-a-haloacetamide as the lead scaffold, we have investigated the structure-activity-relationship analysis to precisely capture the effect of various chemical handles of the scaffold and use the knowledge to improve the overall potency and selectivity of this molecule to prevent cancer cell proliferation. First, we changed the haloacetamide electrophilic unit with various other electrophiles with a characteristic high, moderate, and weak reactivity with thiols when compared to chloroacetamide. Therefore, we opted vinylsulfonamide (highly reactivity), acrylamide (moderate reactivity), and phenoxyacetamides (weak reactivity warheads) for incorporation in the place of haloacetamide warhead of the top hit scaffold. Once synthesized, these molecules were evaluated to assess their antiproliferative potency against Huh-7 cells (Table 2). As expected, the introduction of weakly reactive electrophilic warheads, phenoxyactamides, completely lost the activity against Huh-7 cells. […] Perhaps, the secondary interactions of the electrophilic warhead with the target proteins might play additional roles. Therefore, we shifted our focus to optimize the rest of the core scaffold for further SAR analysis. b. Role of N-Substitutions: Next, we synthesized the NH-derivative of haloacetamides to capture the importance of N-alkylation on the activity of our hit molecule. […] Perhaps the hydrogen bonding induced planarity around the warhead influences the molecules' weakened potency. Conversely, the additional flexibility in the lead molecule (tertiary amide) might contribute to the strong antiproliferative activity of the hit molecule. […]

[3] = test system: U2OS; assay: Cell viability, CellTiter-Glo assay, U2OS; type: cell-based; conditions: Homo sapiens
Description: as §1
(§2) The viability of screened cancer cells was recorded using a luminescence-based CellTiter-Glo® assay for the ATP quantification. The screening concentration of IITK3002 ranged from 10 μM to 4.5 nM with an 8-point-3-fold dilution series in DMEM media (>0.1% DMSO as control). Each experiment was conducted in more than two biological replicates with three technical replicates. The error bar is a representation of standard deviation among the technical replicates.
(§3) a. […] In parallel, we have also synthesized the bromoacetamide (IITK3002) version of the lead molecules which is slightly more reactive with thiol nucleophiles when compared to chlorooacetamide warheads as depicted in FIG. 13. […] In addition, we also evaluated the molecules' antiproliferative potency against a panel of twelve different cancer phenotypes. The set of cancer cell lines included liver, breast, colon, myeloma, bone, blood, skin, brain and prostate lineages (FIG. 2, 3, Table 1).

[4] = test system: PC3; assay: Cell viability, CellTiter-Glo assay, PC3; type: cell-based; conditions: Homo sapiens, PC-3, PC3, cell viability
Description: as §1, §2, §3

[5] = test system: 22Rv1; assay: Cell viability, CellTiter-Glo assay, 22Rv1; type: cell-based; conditions: Homo sapiens, 22Rv1, 22Rv1, cell viability
Description: as §1, §2, §3

[6] = test system: Huh-7 cells; assay: Combination cell viability experiments with thiols, ferroptosis modulators and cell death inhibitors in Huh-7 cells; type: cell-based; conditions: combination with GSH, NAC, BSO, Fer-1, deferoxamine, RSL3, FIN56, Erastin, QVD-OPh, necrostatin-1; Huh-7 and 4T1
Description: FIG. 14 depicts a combination experiment indicates the involvement of thiol modulation by IITK3001/IITK3002 on the viability of Huh-7 and 4T1 cells, in accordance with an embodiment of the present invention. The viability of screened cancer cells was recorded using a luminescence-based CellTiter-Glo® assay for the ATP quantification. The screening concentration of (a) IITK3001 and (b) IITK3002 ranged from 10 uM to 4.5 nM with an 8-point-3-fold dilution series in DMEM medium (>0.1% DMSO as control). For combination experiments, 500 μM of NAC or glutathione and 25 μM of BSO were used. Each experiment was conducted in more than two biological replicates with three technical replicates. The error bar is a representation of standard deviation among the technical replicates.
(§4) FIG. 16 depicts ferroptosis induction as a cell death mechanism is established for IITK3001 using combination experiments with ferroptosis inducers and inhibitors, in accordance with an embodiment of the present invention. The screening concentration of (a) IITK3001 and (b) IITK3002 ranged from 10 μM to 4.5 nM with an 8-point-3-fold dilution series in DMEM medium (>0.1% DMSO as control). For combination experiments, Ferrostain-1 (10 μM),Deferoxamine (3 μM), RSL3 (10 nM), FIN56 (30 nM), glutamine (0.5 mM), glutamic acid (0.5 mM), Erastin (0.5 μM) were used. Each experiment was conducted in more than two biological replicates with three technical replicates. The error bar is a representation of standard deviation among the technical replicates.
as §4, with “18” for “16”, “IITK3002” for “IITK3001”, “of” for “of (a) IITK3001 and (b)”, “μM), Deferoxamine” for “μM),Deferoxamine”
FIG. 20 depicts combining apoptosis and necroptosis inhibitors ruled out the possibility of respective cell death mechanisms upon treatment with IITK3001 or IITK3002 in Huh-7 and 4T1 cells, in accordance with an embodiment of the present invention. The screening concentration of IITK3001/IITK3002 ranged from 10 μM to 4.5 nM with an 8-point-3-fold dilution series in DMEM medium (>0.1% DMSO as control). For combination experiments, QVD-OPh and Necrsotatin-1 (10 μM) were used. Each experiment was conducted in more than two biological replicates with three technical replicates. The error bar is a representation of standard deviation among the technical replicates.
FIG. 22 depicts ferroptosis induction was established for IITK3003 using combination experiments in Huh-7 cells, in accordance with an embodiment of the present invention. The screening concentration of IITK3002 ranged from 10 uM to 4.5 nM with an 8-point-3-fold dilution series in DMEM medium (>0.1% DMSO as control). For combination experiments, Ferrostain-1 ([…]), Deferoxamine (3 μM), RSL3 (10 nM), FIN56 (30 nM), glutamine (0.5 mM), glutamic acid (0.5 mM), Erastin (0.5 μM) were used. Each experiment was conducted in more than two biological replicates with three technical replicates. The error bar is a representation of standard deviation among the technical replicates.
FIG. 24 depicts ferroptosis induction was established for IITK3004 using combination experiments in Huh-7 cells, in accordance with an embodiment of the present invention. The screening concentration of the molecules (a) IITK3001 and (b) IITK3002 ranged from 10 μM to 4.5 nM with a 8-point-3-fold dilution series. […]

Row | EC50 [2] [nM] | EC50 [3] [nM] | EC50 [4] [nM] | EC50 [5] [nM] | Compound | intracellular ROS, H2DCF-DA fluorescence intensity [1] | cell death mechanism from combination experiments [6]
1 |  |  |  |  | OO [Hydrogen peroxide, reference compound] | drastic enhancement in the fluorescence intensity | 
2 | 4.64 | 370 | 130 | 120 | C#CCN(C(=O)CBr)c1ccccc1C(=O)c1ccccc1 [IITK3004, N-(2-benzoylphenyl)-2-bromo-N-(prop-2-yn-1-yl)acetamide] |  | exceptionally selective ferroptosis inducers
